One test addresses T1, PIK3C2G (Homo sapiens, UniProt O75747).
T1 construct: purchased KinomeScan® (panel service)
T1 sequence (O75747 1-1486): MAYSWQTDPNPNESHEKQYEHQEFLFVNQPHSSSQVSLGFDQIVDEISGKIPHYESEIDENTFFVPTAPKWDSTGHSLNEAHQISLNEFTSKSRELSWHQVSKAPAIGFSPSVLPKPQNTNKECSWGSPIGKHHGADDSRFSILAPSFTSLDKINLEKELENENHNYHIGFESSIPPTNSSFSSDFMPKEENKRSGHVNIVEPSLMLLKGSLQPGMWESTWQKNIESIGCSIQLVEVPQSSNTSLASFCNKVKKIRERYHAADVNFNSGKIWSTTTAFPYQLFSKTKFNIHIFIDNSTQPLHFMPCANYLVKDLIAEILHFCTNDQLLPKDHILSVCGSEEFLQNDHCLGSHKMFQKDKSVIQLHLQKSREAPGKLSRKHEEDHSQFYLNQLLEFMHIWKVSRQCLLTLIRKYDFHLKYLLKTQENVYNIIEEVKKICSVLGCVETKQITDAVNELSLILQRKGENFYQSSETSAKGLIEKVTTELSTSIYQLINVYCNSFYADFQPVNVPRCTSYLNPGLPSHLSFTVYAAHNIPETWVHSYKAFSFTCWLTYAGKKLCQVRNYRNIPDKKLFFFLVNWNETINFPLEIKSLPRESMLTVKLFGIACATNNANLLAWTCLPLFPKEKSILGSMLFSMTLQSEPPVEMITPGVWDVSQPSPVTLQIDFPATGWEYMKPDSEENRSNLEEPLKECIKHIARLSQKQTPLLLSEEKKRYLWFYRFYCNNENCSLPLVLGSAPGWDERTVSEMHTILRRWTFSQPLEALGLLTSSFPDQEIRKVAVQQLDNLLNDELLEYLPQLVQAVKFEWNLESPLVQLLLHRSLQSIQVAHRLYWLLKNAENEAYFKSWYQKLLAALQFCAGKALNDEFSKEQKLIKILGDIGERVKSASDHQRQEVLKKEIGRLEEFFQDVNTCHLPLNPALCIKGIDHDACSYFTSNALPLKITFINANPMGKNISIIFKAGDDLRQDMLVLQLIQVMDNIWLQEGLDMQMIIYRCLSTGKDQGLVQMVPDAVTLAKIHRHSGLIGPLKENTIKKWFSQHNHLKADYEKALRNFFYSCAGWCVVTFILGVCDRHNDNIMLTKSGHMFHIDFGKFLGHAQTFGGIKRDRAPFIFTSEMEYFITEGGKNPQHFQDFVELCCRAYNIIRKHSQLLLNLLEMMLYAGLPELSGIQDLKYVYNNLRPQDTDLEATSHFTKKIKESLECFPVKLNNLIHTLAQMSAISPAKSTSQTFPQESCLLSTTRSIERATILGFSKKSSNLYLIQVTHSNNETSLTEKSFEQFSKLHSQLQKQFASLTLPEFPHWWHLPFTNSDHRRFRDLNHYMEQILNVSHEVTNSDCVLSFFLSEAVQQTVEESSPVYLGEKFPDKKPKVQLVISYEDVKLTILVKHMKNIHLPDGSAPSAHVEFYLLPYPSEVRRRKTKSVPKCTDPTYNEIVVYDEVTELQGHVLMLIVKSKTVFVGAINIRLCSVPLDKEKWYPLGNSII
Briefly: KinomeScan profiling. In kind it is binding. The settings on record: read-out: % control. An outline of the steps: (§1)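 Single-point competition binding screen: 1 μM, DMSO, 468 kinases. Results reported as % control from RLU, normalised to DMSO and positive-control wells. Activity threshold: <35% control.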

A further test addresses T2, CDKL5 (Homo sapiens, UniProt O76039).
T2 sequence (O76039 1-960): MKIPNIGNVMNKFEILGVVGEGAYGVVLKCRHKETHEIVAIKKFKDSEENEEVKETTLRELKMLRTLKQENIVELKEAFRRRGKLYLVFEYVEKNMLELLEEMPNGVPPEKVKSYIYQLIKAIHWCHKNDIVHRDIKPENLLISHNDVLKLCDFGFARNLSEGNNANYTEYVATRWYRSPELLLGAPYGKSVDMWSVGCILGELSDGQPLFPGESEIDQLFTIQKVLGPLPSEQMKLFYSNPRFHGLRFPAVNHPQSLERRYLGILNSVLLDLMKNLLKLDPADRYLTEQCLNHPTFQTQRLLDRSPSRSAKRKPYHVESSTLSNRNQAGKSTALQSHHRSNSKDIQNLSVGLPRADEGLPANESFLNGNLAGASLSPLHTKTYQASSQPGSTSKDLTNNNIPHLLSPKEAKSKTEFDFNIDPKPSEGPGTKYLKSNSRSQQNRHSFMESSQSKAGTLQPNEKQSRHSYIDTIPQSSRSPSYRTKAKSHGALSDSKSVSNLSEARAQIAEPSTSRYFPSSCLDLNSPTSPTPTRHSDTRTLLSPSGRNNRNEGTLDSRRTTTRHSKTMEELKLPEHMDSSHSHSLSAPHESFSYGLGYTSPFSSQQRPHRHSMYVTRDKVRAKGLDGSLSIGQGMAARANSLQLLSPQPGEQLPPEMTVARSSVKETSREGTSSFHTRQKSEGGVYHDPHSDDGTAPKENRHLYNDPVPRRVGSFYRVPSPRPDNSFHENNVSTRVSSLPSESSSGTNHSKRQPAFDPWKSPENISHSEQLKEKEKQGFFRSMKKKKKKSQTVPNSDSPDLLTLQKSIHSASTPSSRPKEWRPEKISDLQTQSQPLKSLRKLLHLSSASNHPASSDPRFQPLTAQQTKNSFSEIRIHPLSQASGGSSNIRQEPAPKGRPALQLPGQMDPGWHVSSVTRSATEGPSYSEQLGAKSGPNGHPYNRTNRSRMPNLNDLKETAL
Briefly: KinomeScan profiling. In kind it is binding. Particulars: CDKL5, 1 μM; read-out: % control. An outline of the steps:
as §1

This passage reports remaining binding results from patent publication US12275731B2, “Azaindole inhibitors of wild-type and mutant forms of LRRK2” (DANA-FARBER CANCER INSTITUTE, INC., priority 2018, dated 2025).

SMILES strings stand for the structures.

With `CNc1c(-c2ccc(C(=O)N3CCC(N4CCOCC4)CC3)cc2)cnc2[nH]cc(Cl)c12` [Compound 96, (4-(3-chloro-4-(methylamino)-1H-pyrrolo[2,3-b]pyridin-5-yl)phenyl)(4-morpholinopiperidin-1-yl)methanone], the figures for the remaining binding at 1 µM on PIK3C2G and at CDKL5 were 94% and 92%, respectively.

As for `O=C(c1ccc(-c2cnc3[nH]cc(Cl)c3c2NC2CCCC2)cc1)N1CCC(N2CCOCC2)CC1` [Compound 101, (4-(3-chloro-4-(cyclopentylamino)-1H-pyrrolo[2,3-b]pyridin-5-yl)phenyl)(4-morpholinopiperidin-1-yl)methanone], the remaining binding at 1 µM on PIK3C2G turned out to be 92%; at CDKL5, 70%.

On to `CNc1c(-c2cnn([C@H]3CCN(C(C)=O)C[C@@H]3F)c2)cnc2[nH]cc(Cl)c12` [Compound 77, 1-((3S,4S)-4-(4-(3-chloro-4-(methylamino)-1H-pyrrolo[2,3-b]pyridin-5-yl)-1H-pyrazol-1-yl)-3-fluoropiperidin-1-yl)ethan-1-one], for which the remaining binding at 1 µM is 100% at PIK3C2G and 94% at CDKL5.
